{
  "source": "patent US8377883B2",
  "about": "“Peptide for anti-angiogenesis and use thereof” (Beijing Institute for Cancer Research, priority 2006, dated 2013)",
  "key": {"tumor microvessel": {"system": "tumor microvessel", "experiment": "Tumor microvessel density (MVD) by factor VIII immunohistochemistry", "format": "in vivo, mice", "procedure": "In order to confirm that the suppression of FpAT on tumor growth in mice in vivo is achieved by suppressing angiogenesis, an analysis of microvessel density in tumor was performed in this example by using tumor mass in Examples 4 and 5.\nThe tumor masses were fixed with formaldehyde, and then cut into serial section of 3 μm. The paraffin sections were dewaxed to water, and incubated in 3% H2O2 at room temperature for 10 minutes, to which rabbit anti-human factor VIII polyclonal antibody (DAKO company) was added dropwise, and after left at 4° C. overnight; 1:200 sheep anti-rabbit IgG labeled with biotin (Beijing ZhongShan bioengineering Company) was added dropwise, and incubated at 37° C. for 30 minutes. […] Then a visual field with most interstitial blood vessels of cancer nest was chosen, and under a ×400 magnitude field, 3 visual fields were counted by 3 observers individually according to double blind method; wherein individual cells and cell clusters stained brown were observed and taken as one blood vessel, whereas blood vessel cavities and erythrocytes therein were not counted, and blood vessel or vessel cavities in muscular layer larger than 50 μm were excluded. The average value of numbers counted by 3 individuals was taken as MVD (microvessel density) result of this case for a statistics analysis, see Table 4."}, "[1]": {"system": "endothelial cells of mouse aorta", "experiment": "Growth of primary endothelial cells from mouse aorta segments on Matrigel", "format": "cell-based, Balb/c mice", "settings": "10, 25, 100 μg/ml PBS; 48 hours, 72 hours", "procedure": "The Balb/c mice were sacrificed by dislocating the neck and aorta were detached and washed off the blood cells therein with PBS. The cleaned aorta was cut into aorta segments in length of 1 mm, which were planted vertically in 24-well cell culture plate coated with Matrigel gel (BD company); and 10% FCS/RPMI1640 was added, and the plates were placed and cultured in CO2 incubator (37° C., 5% CO2). The vehicle (PBS) and FpAT (10 μg/ml PBS, 25 μg/ml PBS, 100 μg/ml PBS) were added separately, with 3 parallel wells per group, and the cultivation was performed for 48 hours, 72 hours. Then the growth of mouse aorta endothelial cell was observed under microscope."}, "[2]": {"system": "mice liver cancer H22 cells", "experiment": "Tumor suppression by FpAT and derivative peptides in liver cancer H22 tumor-bearing mouse model (Example 14)", "format": "in vivo, mice of Kunming strain", "settings": "peptides 50 μg/100 μl PBS/injection, angulus oculi medialis vein daily, 7 times; CTX 80 mg/KG; tumors weighed", "procedure": "Ninety 5-week old mice of Kunming strain purchased from Animal Center Of Chinese Academy Of Medical Sciences were inoculated subcutaneously in forelimb with mice liver cancer H22 cells (National Institute for the Control of Pharmaceutical and Biological Products) (5×10^6/100 μl/mouse). On the next day after inoculation, each kind of inoculated cells were divided randomly into […] with 10 mice per group. FpAT (50 μg/100 μl PBS/injection) and 7 kinds of derivative peptides thereof (see Table 5 below for detailed sequence):FpAT-N3d, FpAT-N6d, FpAT-N9d, FpAT-C3d, FpAT-C6d, FpAT-C9d, FpAT-N5d-C4d, and vehicle control (PBS:100 μl/injection) were injected in angulus oculi medialis vein, with CTX (cyclophosphamide) (80 mg/KG) as positive control daily, 7 times in total. The mice were sacrificed by dislocating the neck on the next day after administration was stopped, and the tumors were taken and weighed for a statistical analysis."}},
  "data": [
    {"substance": "H2N-Asp-Ser-Gly-Glu-Gly-Asp-Phe-Leu-Ala-Glu-Gly-Gly-Gly-Val-Arg-COOH (H-DSGEGDFLAEGGGVR-OH; listed as Homo sapiens) [FpAT, fibrinopeptide A truncated, carboxyl terminal 15 amino acids of fibrinopeptide A]", "values": [
      {"measurement": "MVD", "setting": "tumor microvessel; tumor mass of Examples 4 and 5, 20 visual fields observed totally, PBS group 6.4", "value": "2.6 Number of micro vessel/visual field"},
      {"measurement": "growth of microvessel in tumor tissue", "setting": "tumor microvessel; vs PBS control group, P<0.05", "value": "suppressed significantly the growth of microvessel"},
      {"measurement": "growth of vascular endothelial cell of mouse aorta", "setting": "[1]", "value": "can suppress specifically the growth"},
      {"measurement": "proliferation, migration and ability to form tubular structure of vascular endothelial cell of mouse aorta", "setting": "[1]", "value": "suppress notably"},
      {"measurement": "tumor suppressing rate", "setting": "[2]", "value": 65.4, "unit": "%"}
    ]}
  ]
}
